A word on the inhibition in vivo: it is the change of the read-out against control, counted positive when it falls. Low values mean a weak effect, high ones a strong effect. As usually defined, the IC50 is the concentration that gives 50% inhibition. A higher IC50 goes with a need for much substance. For orientation: inhibition means the change of the read-out against control, counted positive when it falls.

This is an account of results in PMC9737349, “Discovery of 5-Methylthiazole-Thiazolidinone Conjugates as Potential Anti-Inflammatory Agents: Molecular Target Identification and In Silico Studies” (Molecules, 2022).

Experiment [1] concerns carrageenan-induced mouse paw edema. Nature of the experiment: Carrageenan-induced mouse paw oedema. It counts as in vivo. To be noted: mice, i.p. 0.15 mmol/kg 5 min before carrageenan, paw weight increase after 3.5 h; for inhibition in vivo at 150 µmol/kg: Mus musculus, ip. As for the experimental part: For the study of possible anti-inflammatory action, the swelling caused in the sole of the right hind limb by intradermal administration of carrageenan was used as a model of inflammation. Carrageenan-induced edema is a non-specific inflammation that results from a number of different transmitters and resembles human acute inflammation.
The animals were weighed and divided into control, standard and test groups. Each group contained 10 mice. […] An aqueous solution of carrageenan 0.1 mL, 1% w/v) was injected subcutaneously to the sub-plantar region of the right hind paw, with the left paw as control. The tested compounds (suspended in water with a few drops of Tween 80) were given i.p. (0.15 mmol/kg) 5 min before the carrageenan administration. After 3.5 h, the hind paws were excised and were weighed separately. The produced oedema was estimated as a paw weight increase.
A general note: Carrageenan injected into the paw causes an acute inflammation.

Another experiment has as its target T1, ovine COX-1 (Ovis aries, UniProt P05979).
T1 construct: purchased Cayman Chemical Co., Ann Arbor, MI
T1 sequence (P05979 25-600): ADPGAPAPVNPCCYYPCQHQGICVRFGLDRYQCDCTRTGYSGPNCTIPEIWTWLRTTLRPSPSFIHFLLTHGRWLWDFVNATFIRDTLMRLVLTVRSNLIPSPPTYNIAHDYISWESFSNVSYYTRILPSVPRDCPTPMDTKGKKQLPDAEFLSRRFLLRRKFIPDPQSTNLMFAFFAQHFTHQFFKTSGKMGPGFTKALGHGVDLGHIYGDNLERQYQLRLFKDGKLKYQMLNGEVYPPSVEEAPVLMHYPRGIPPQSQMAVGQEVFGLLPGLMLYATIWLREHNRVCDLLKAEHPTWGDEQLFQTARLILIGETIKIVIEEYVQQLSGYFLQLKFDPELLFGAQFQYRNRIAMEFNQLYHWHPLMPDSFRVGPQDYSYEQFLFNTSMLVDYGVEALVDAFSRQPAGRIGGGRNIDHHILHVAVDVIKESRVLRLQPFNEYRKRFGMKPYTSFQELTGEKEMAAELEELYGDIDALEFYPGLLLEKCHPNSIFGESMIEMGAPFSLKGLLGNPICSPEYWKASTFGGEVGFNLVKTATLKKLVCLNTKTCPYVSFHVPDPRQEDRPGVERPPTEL
Kind of experiment: Inhibition of COX-1 activity (Cayman COX Inhibitor Screening Assay kit). It counts as biochemical. As for the experimental part: (§1) The effect of compounds on COX-1 and COX-2 inhibition was measured using a commercial kit provided by Cayman (Cayman Chemical Co., Ann Arbor, MI), applying the instructions of the manufacturer. The kit uses ovine COX-1 and human recombinant COX-2 enzymes. […] The assay measures PGF2a produced by SnCl2 reduction of COX-derived PGH2.

A further experiment concerns the target T2, human recombinant COX-2 (Homo sapiens, UniProt P35354).
T2 construct: purchased Cayman Chemical Co., Ann Arbor, MI
T2 sequence (P35354 18-604): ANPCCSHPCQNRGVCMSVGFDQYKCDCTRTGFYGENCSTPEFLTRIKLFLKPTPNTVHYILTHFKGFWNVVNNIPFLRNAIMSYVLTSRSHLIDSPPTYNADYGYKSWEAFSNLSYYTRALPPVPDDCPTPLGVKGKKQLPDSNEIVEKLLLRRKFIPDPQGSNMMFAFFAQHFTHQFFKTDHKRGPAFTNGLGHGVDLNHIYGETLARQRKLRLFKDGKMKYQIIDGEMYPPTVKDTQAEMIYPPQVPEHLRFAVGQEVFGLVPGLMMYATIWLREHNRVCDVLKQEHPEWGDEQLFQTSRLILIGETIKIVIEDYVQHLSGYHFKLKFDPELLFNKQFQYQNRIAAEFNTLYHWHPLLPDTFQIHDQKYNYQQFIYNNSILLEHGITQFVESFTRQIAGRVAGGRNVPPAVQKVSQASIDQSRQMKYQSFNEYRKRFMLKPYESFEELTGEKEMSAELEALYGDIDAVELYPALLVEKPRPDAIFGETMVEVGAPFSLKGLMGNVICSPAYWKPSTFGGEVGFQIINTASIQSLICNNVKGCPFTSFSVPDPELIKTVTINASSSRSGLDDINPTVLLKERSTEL
Nature of the experiment: Inhibition of COX-2 activity (Cayman COX Inhibitor Screening Assay kit). It counts as biochemical. The following applies: read-out: Inhibition, COX-2, Inhibition (%) 200 μM. As for the experimental part:
as §1

For the next experiment, the target named is T3, soybean LOX (Glycine max, UniProt P08170).
T3 construct: purchased Sigma (St. Louis, MO, USA)
T3 sequence (P08170 1-839): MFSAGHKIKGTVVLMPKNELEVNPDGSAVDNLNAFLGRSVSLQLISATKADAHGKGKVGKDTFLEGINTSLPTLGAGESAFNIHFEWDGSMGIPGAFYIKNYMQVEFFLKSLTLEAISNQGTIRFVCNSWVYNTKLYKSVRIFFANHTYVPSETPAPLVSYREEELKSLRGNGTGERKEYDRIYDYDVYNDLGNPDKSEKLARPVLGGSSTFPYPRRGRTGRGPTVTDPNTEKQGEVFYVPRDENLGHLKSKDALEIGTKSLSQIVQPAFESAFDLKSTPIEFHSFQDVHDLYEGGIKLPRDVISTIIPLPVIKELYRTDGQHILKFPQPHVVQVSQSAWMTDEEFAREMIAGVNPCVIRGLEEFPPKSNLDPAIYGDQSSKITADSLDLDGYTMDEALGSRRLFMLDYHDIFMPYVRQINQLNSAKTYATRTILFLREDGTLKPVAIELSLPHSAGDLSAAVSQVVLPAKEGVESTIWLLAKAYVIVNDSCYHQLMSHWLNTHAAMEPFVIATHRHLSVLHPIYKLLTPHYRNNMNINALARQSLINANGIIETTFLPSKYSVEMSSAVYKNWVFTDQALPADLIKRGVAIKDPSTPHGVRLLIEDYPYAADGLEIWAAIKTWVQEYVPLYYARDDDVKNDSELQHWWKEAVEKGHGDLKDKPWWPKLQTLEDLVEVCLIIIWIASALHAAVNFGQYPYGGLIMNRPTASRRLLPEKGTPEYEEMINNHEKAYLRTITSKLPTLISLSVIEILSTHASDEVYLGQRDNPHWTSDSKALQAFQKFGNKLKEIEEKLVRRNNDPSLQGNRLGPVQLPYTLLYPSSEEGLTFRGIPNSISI
Nature of the experiment: Inhibition of LOX activity. In kind it is biochemical. As for the experimental part: The reaction mixture contained (final concentration 300 μM) the test compounds, dissolved in absolute ethanol (10–300 μM), or the solvent (control), soybean LOX, dissolved in 0.9% NaCl solution (250 u/mL) and sodium linoleate (100 μM), in Tris-HCl buffer, pH 9.0. The reaction was followed for 7 min at 28 °C, recording the absorbance (234 nm) of a conjugated diene structure, due to the formation of 13-hydroperoxy-linoleic acid. […] For the estimation of the type of inhibition, the above experiments were repeated, using 1 mM sodium linoleate, which is higher than the saturating substrate concentration.

Compound `Cc1cnc(N=C2NC(=O)C(=Cc3ccccc3)S2)s1` [Compound 1] showed an inhibition in vivo at 150 µmol/kg in experiment [1] of 51.6 ± 1.5%.
Still for that read-out and setting: the result for `Cc1cnc(N=C2NC(=O)C(=Cc3ccccc3O)S2)s1` [Compound 2] reads 43.1 ± 1.9%.
With `Cc1cnc(N=C2NC(=O)C(=Cc3ccc(O)cc3)S2)s1` [Compound 3], in experiment [1], the inhibition in vivo at 150 µmol/kg came out at 31.4% and the “Oedema Inhibition (%)” value was 31.4 ± 2.3 %.
With `COc1ccc(C=C2SC(=Nc3ncc(C)s3)NC2=O)cc1` [Compound 4], the inhibition in vivo at 150 µmol/kg in experiment [1] is 48.3 ± 1.8%.
Same read-out and setting: in the case of `COc1ccc(OC)c(C=C2SC(=Nc3ncc(C)s3)NC2=O)c1` [Compound 5] it was 44.9 ± 1.7%; in that of `Cc1cnc(N=C2NC(=O)C(=Cc3ccccc3[N+](=O)[O-])S2)s1` [Compound 6], 48.7 ± 1.8%.
The same measure, in the same setting: in the case of `Cc1cnc(N=C2NC(=O)C(=Cc3cccc([N+](=O)[O-])c3)S2)s1` [Compound 7] it was 54.5 ± 1.4%.
Regarding `Cc1cnc(N=C2NC(=O)C(=Cc3ccc([N+](=O)[O-])cc3)S2)s1` [Compound 8], in experiment [1], the inhibition in vivo at 150 µmol/kg turned out to be 55.4% and the “Oedema Inhibition (%)” value was found to be 55.4 ± 1.5 %. At ovine COX-1, this compound showed an IC50 of 14.4 ± 0.7 µM and an inhibition at 200 µM of 100%. The inhibition at 200 µM at human recombinant COX-2 turned out to be 0%. This compound also showed an inhibition at 100 µM against soybean LOX of 7.88 ± 2.1%.
`Cc1cnc(N=C2NC(=O)C(=Cc3cccc(F)c3)S2)s1` [Compound 9] yielded an inhibition in vivo at 150 µmol/kg in experiment [1] of 34.8 ± 2.1%.
Same read-out and setting: in the case of `Cc1cnc(N=C2NC(=O)C(=Cc3ccc(F)cc3)S2)s1` [Compound 10] it was 47.8 ± 1.6%.
`Cc1cnc(N=C2NC(=O)C(=Cc3ccccc3Cl)S2)s1` [Compound 11] displayed an inhibition in vivo at 150 µmol/kg in experiment [1] of 43 ± 1.7%.
Regarding `Cc1cnc(N=C2NC(=O)C(=Cc3ccc(Cl)cc3)S2)s1` [Compound 12], in experiment [1], the inhibition in vivo at 150 µmol/kg came to 55.6% and the “Oedema Inhibition (%)” value was 55.6 ± 1.5 %.
Regarding `Cc1cnc(N=C2NC(=O)C(=Cc3cccc(Cl)c3Cl)S2)s1` [Compound 13], in experiment [1], the inhibition in vivo at 150 µmol/kg was found to be 57.8% and the “Oedema Inhibition (%)” value worked out at 57.8 ± 1.3 %. On ovine COX-1, it took 1.1 ± 0.3 µM to reach half-maximal inhibition (IC50) and at 200 µM the inhibition was 100%. Moreover, the inhibition at 200 µM at human recombinant COX-2 came to 0%. Further, the inhibition at 100 µM against soybean LOX stood at 37.2 ± 1.8%.
`Cc1cnc(N=C2NC(=O)C(=Cc3ccc(Cl)cc3Cl)S2)s1` [Compound 14]: the inhibition in vivo at 150 µmol/kg in experiment [1] stood at 35.2 ± 2.1%.
The same measure, in the same setting: the result for `Cc1cnc(N=C2NC(=O)C(=Cc3c(Cl)cccc3Cl)S2)s1` [Compound 15] reads 39.4 ± 2.3%.
Regarding `Cc1cnc(N=C2NC(=O)C(=Cc3cccc(Br)c3)S2)s1` [Compound 16], in experiment [1], the inhibition in vivo at 150 µmol/kg amounted to 57.6% and the “Oedema Inhibition (%)” value is on record as 57.6 ± 1.4 %. On ovine COX-1, this compound returned an IC50 of 1.08 ± 0.3 µM and an inhibition at 200 µM of 100%. Moreover, the inhibition at 200 µM on human recombinant COX-2 came to 0%. Moreover, the inhibition at 100 µM against soybean LOX amounted to 46.7 ± 1.5%.
Regarding `Cc1cnc(N=C2NC(=O)C(=Cc3ccc(Br)cc3)S2)s1` [Compound 17], in experiment [1], the inhibition in vivo at 150 µmol/kg was 41.4 ± 1.9%.
With `COc1ccc2cc([C@H](C)C(=O)O)ccc2c1` [Naproxen, reference compound], at human recombinant COX-2, the inhibition at 200 µM was 17 ± 2.3%.
